Reference: the CheMixHub viscosity set

Test: xn = mol fraction of the nth substance listed

CC1CCCCC1 + CC(C)O
viscosity [mPa·s], 100 kPa
Details | x1 = 0.081 | x1 = 0.1601 | x1 = 0.2401 | x1 = 0.35 | x1 = 0.44 | x1 = 0.5602 | x1 = 0.65 | x1 = 0.7401 | x1 = 0.8501 | x1 = 0.9403
293.15 K | 1.88 | 1.47 | 1.17 | 0.89 | 0.78 | 0.72 | 0.73 | 0.75 | 0.77 | 0.76
298.15 K | 1.65 | 1.33 | 1.08 | 0.87 | 0.76 | 0.71 | 0.7 | 0.7 | – | 0.71
303.15 K | – | 1.18 | 0.98 | 0.81 | 0.73 | 0.7 | 0.69 | 0.68 | 0.68 | 0.67
308.15 K | 1.26 | 1.05 | 0.89 | 0.74 | 0.67 | 0.64 | 0.63 | 0.63 | 0.64 | 0.62
313.15 K | 1.1 | 0.92 | 0.79 | 0.65 | 0.6 | 0.58 | 0.57 | 0.58 | 0.59 | 0.6
318.15 K | 0.97 | 0.82 | 0.7 | 0.6 | 0.55 | 0.54 | 0.54 | 0.55 | 0.56 | 0.55
323.15 K | 0.84 | 0.69 | 0.58 | 0.49 | 0.46 | 0.46 | 0.47 | 0.49 | 0.51 | 0.52

CCCCCl + CC(C)O
298.15 K, 101 kPa
Details | viscosity [mPa·s]
x2 = 0.1 | 0.438
x2 = 0.1661 | 0.468
x2 = 0.225 | 0.47
x2 = 0.2891 | 0.493
x2 = 0.35 | 0.522
x2 = 0.4295 | 0.579
x2 = 0.5105 | 0.642
x2 = 0.5479 | 0.675
x2 = 0.6603 | 0.809
x2 = 0.7645 | 1.044
x2 = 0.8538 | 1.338
x2 = 0.92 | 1.615

CCOC(=O)c1ccccc1 + CC(C)O
viscosity [mPa·s], 101 kPa
Details | x1 = 0.056 | x1 = 0.1177 | x1 = 0.1862 | x1 = 0.2624 | x1 = 0.348 | x1 = 0.4446 | x1 = 0.546 | x1 = 0.681 | x1 = 0.8277
303.15 K | 1.659 | 1.664 | 1.671 | 1.678 | 1.686 | 1.695 | 1.706 | 1.719 | 1.733
308.15 K | 1.501 | 1.508 | 1.515 | 1.525 | 1.532 | 1.541 | 1.551 | 1.563 | 1.577
313.15 K | 1.327 | 1.337 | 1.345 | 1.356 | 1.367 | 1.38 | 1.394 | 1.409 | 1.426
318.15 K | 1.192 | 1.203 | 1.213 | 1.225 | 1.239 | 1.254 | 1.27 | 1.291 | 1.313
323.15 K | 1.074 | 1.085 | 1.099 | 1.114 | 1.13 | 1.15 | 1.167 | 1.194 | 1.222

CCS(=O)CC + CCC#N
viscosity [mPa·s], 101 kPa
Details | x1 = 0.0998 | x1 = 0.2002 | x1 = 0.2962 | x1 = 0.3999 | x1 = 0.4953 | x1 = 0.6017 | x1 = 0.6937 | x1 = 0.7999 | x1 = 0.8998
298.15 K | 0.53 | 0.63 | 0.73 | 0.89 | 1.05 | 1.26 | 1.45 | 1.74 | 1.98
303.15 K | 0.49 | 0.59 | 0.69 | 0.83 | 0.96 | 1.15 | 1.35 | 1.56 | 1.84
308.15 K | 0.46 | 0.55 | 0.64 | 0.78 | 0.89 | 1.06 | 1.25 | 1.41 | 1.68
313.15 K | 0.44 | 0.54 | 0.61 | 0.74 | 0.85 | 0.99 | 1.14 | 1.32 | 1.52
318.15 K | 0.42 | 0.5 | 0.59 | 0.69 | 0.78 | 0.92 | – | 1.21 | 1.39
323.15 K | 0.36 | 0.43 | 0.51 | 0.59 | 0.67 | 0.79 | 0.91 | 1.02 | 1.17

CCCCCN + CCC(=O)O
viscosity [mPa·s], 101.33 kPa
Details | 293.15 K | 298.15 K | 298.5 K | 303.15 K | 308.15 K | 313.15 K | 318.15 K | 323.15 K
x2 = 0.1 | 1.62 | 1.53 | – | 1.42 | 1.4 | 1.32 | 1.24 | –
x2 = 0.2 | 1.97 | 1.86 | – | 1.74 | 1.69 | 1.6 | 1.51 | –
x2 = 0.3 | 13.7 | 11.78 | – | 10.12 | 8.82 | 7.77 | 6.87 | –
x2 = 0.4 | 85.81 | – | 71.98 | 56.82 | 46.99 | 39.47 | 33.6 | 28.82
x2 = 0.5 | 707.8 | 510.2 | – | 386 | 296.3 | 226.2 | 178.3 | –
x2 = 0.6 | 368.1 | 274.6 | – | 210 | 164.6 | 130.8 | 103.8 | –
x2 = 0.7 | 75.4 | 60.4 | – | 48.75 | 40.4 | 33.8 | 28.4 | –
